The results in this text go back to the supplement of paper PMC11208160.
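Also: IS621 recombinase and bridge RNA in Escherichia coli cells.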

The series can be described thus: recombinant barcode read abundance after kanamycin selection (control-corrected) (log10(CPM+1)); higher = more efficient recombination; sequences stand for … in AGTGCAGAGAAAATCGGCCAGTTTTCTCTGCCTGCAGTCCGCATGCCGT…AGATTTATGCAGCGGACTGCCTTTCTCCCAAAGTGATAAACCGGACAGTATCATGGACCGGTTTTCCCGGTAATCCGTATTTGCAAGGTTGGTTTCACT; site = the 11-nt target. The method in brief: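 Pooled oligos, each joining a target to an IS621 bridge RNA target-binding loop, were cloned and co-electroporated with a donor plasmid into E. coli. Selective plates carried chloramphenicol/ampicillin/kanamycin and 0.1 mM IPTG, while chloramphenicol/ampicillin LB agar served as control, with two replicates of each. Recombination efficiency rests on averaged, control-corrected counts per million of barcodes at recombinant junctions, shown as log10(CPM+1).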
With “TAGTGTGCTTGGGTTCTAACCTGTTGCTT (site TAGTGTGCTAA)”, the “recombinant barcode read abundance (log10)” value is 0.31.

As to “TAGTGTGCTTGGGTTCTAACCTGTTGCTT (site TAGTGTGCTAC)”, the “recombinant barcode read abundance (log10)” value amounted to 0.117.

For “TAGTTACCTTGGGTTCTAACCTGTTGCCG (site TACTTAGCTCG)”, the “recombinant barcode read abundance (log10)” value is 0.00977.

As to “TAGTTACCTTGGGTTCTAACCTGTTGCCG (site TAGTTACCTCG)”, the “recombinant barcode read abundance (log10)” value came to 0.612.

Take “TAGTTAGCTTGGGTTCTAACCTGTTGCCC (site TAGTTAGCTAG)”: the “recombinant barcode read abundance (log10)” value is 0.0394.

“TAGTTAGCTTGGGTTCTAACCTGTTGCCC (site TAGTTAGCTCG)”: the “recombinant barcode read abundance (log10)” value worked out at 0.0413.

In the case of “TAGTTAGCTTGGGTTCTAACCTGTTGCCC (site TAGTTAGCTGG)”, the “recombinant barcode read abundance (log10)” value came out at 0.945.

On to “TAGTTAGCTTGGGTTCTAACCTGTTGCCC (site TAGTTAGCTTG)”, for which the “recombinant barcode read abundance (log10)” value turned out to be 0.0262.

For “TAGTTGACTTGGGTTCTAACCTGTTGCCA (site TAGTTAACTTG)”, the “recombinant barcode read abundance (log10)” value is 0.45.

Consider “TAGTTGACTTGGGTTCTAACCTGTTGCCA (site TAGTTCACTTG)”, for which the “recombinant barcode read abundance (log10)” value was determined as 0.00742.

As for “TAGTTGACTTGGGTTCTAACCTGTTGCCA (site TAGTTGACTTG)”, the “recombinant barcode read abundance (log10)” value amounted to 0.986.

As for “TAGTTGACTTGGGTTCTAACCTGTTGCCA (site TAGTTTACTTG)”, the “recombinant barcode read abundance (log10)” value was 0.0255.

On to “TATAAGACTTGGGTTCTAACCTGTTGCAC (site TAGAAGACTAT)”, for which the “recombinant barcode read abundance (log10)” value was determined as 0.587.

Regarding “TATAAGACTTGGGTTCTAACCTGTTGCAC (site TATAAGACTGT)”, the “recombinant barcode read abundance (log10)” value is 0.755.

On to “TATAATACTTGGGTTCTAACCTGTTGCGA (site TATAATACTTC)”, for which the “recombinant barcode read abundance (log10)” value was determined as 0.32.

“TATAATACTTGGGTTCTAACCTGTTGCGA (site TATACTACTTA)”: the “recombinant barcode read abundance (log10)” value came out at 0.0449.

Turning to “TATAATGCTTGGGTTCTAACCTGTTGCGT (site ATCGGACCTCA)”, the “recombinant barcode read abundance (log10)” value worked out at 0.15.

Consider “TATAATGCTTGGGTTCTAACCTGTTGCGT (site TATAATGCTAC)”, for which the “recombinant barcode read abundance (log10)” value is 0.335.

Regarding “TATACTACTTGGGTTCTAACCTGTTGCTA (site TATAATACTTC)”, the “recombinant barcode read abundance (log10)” value is 0.511.

With “TATACTACTTGGGTTCTAACCTGTTGCTA (site TATACTACTTA)”, the “recombinant barcode read abundance (log10)” value came out at 0.0716.

In the case of “TATAGCTCTTGGGTTCTAACCTGTTGCCT (site AATAGCTCTAG)”, the “recombinant barcode read abundance (log10)” value was found to be 0.0791.

“TATAGCTCTTGGGTTCTAACCTGTTGCCT (site CATAGCTCTAG)”: the “recombinant barcode read abundance (log10)” value was 0.242.

In the case of “TATAGCTCTTGGGTTCTAACCTGTTGCCT (site GATAGCTCTAG)”, the “recombinant barcode read abundance (log10)” value stood at 0.106.

Take “TATAGCTCTTGGGTTCTAACCTGTTGCCT (site TATAGCTCTAG)”: the “recombinant barcode read abundance (log10)” value is 0.479.

For “TATAGGGCTTGGGTTCTAACCTGTTGCCG (site GATAGGGCTCC)”, the “recombinant barcode read abundance (log10)” value turned out to be 0.

In the case of “TATAGGGCTTGGGTTCTAACCTGTTGCCG (site TATAGGGCTCG)”, the “recombinant barcode read abundance (log10)” value is 0.402.

In the case of “TATATATCTTGGGTTCTAACCTGTTGCAT (site AGGTGTCCTTC)”, the “recombinant barcode read abundance (log10)” value is 0.112.

Turning to “TATATATCTTGGGTTCTAACCTGTTGCAT (site TATATATCTAT)”, the “recombinant barcode read abundance (log10)” value was found to be 0.23.

With “TATCAGACTTGGGTTCTAACCTGTTGCAG (site TATCAGACTCT)”, the “recombinant barcode read abundance (log10)” value is 1.45.

As to “TATCAGACTTGGGTTCTAACCTGTTGCAG (site TCTCAGGCTCT)”, the “recombinant barcode read abundance (log10)” value amounted to 0.121.

On to “TATCAGCCTTGGGTTCTAACCTGTTGCTT (site CATCAGCCTAC)”, for which the “recombinant barcode read abundance (log10)” value is 0.0522.

Consider “TATCAGCCTTGGGTTCTAACCTGTTGCTT (site TATCAGCCTAA)”, for which the “recombinant barcode read abundance (log10)” value worked out at 0.0238.

Regarding “TATCCCTCTTGGGTTCTAACCTGTTGCCT (site ATCAAGCCTCT)”, the “recombinant barcode read abundance (log10)” value amounted to 0.18.

Regarding “TATCCCTCTTGGGTTCTAACCTGTTGCCT (site TATCCCTCTAG)”, the “recombinant barcode read abundance (log10)” value was determined as 1.14.

Regarding “TATCCGACTTGGGTTCTAACCTGTTGCCA (site TATCCGACTAG)”, the “recombinant barcode read abundance (log10)” value is 0.56.

With “TATCCGACTTGGGTTCTAACCTGTTGCCA (site TATCCGACTCG)”, the “recombinant barcode read abundance (log10)” value was found to be 0.142.

For “TATCCGACTTGGGTTCTAACCTGTTGCCA (site TATCCGACTGG)”, the “recombinant barcode read abundance (log10)” value is 0.0584.

Take “TATCCGACTTGGGTTCTAACCTGTTGCCA (site TATCCGACTTG)”: the “recombinant barcode read abundance (log10)” value was 0.135.

As for “TATGGAGCTTGGGTTCTAACCTGTTGCTG (site AATGGGGCTCA)”, the “recombinant barcode read abundance (log10)” value was 0.523.

For “TATGGAGCTTGGGTTCTAACCTGTTGCTG (site TATGGAGCTCA)”, the “recombinant barcode read abundance (log10)” value amounted to 1.58.

Turning to “TATGGGACTTGGGTTCTAACCTGTTGCCT (site TATCGCACTAG)”, the “recombinant barcode read abundance (log10)” value is 0.0772.

On to “TATGGGACTTGGGTTCTAACCTGTTGCCT (site TATGGGACTAG)”, for which the “recombinant barcode read abundance (log10)” value was found to be 1.25.

As to “TATGGTACTTGGGTTCTAACCTGTTGCGT (site GGGATACCTTA)”, the “recombinant barcode read abundance (log10)” value amounted to 0.0757.

As to “TATGGTACTTGGGTTCTAACCTGTTGCGT (site TATGGTACTAC)”, the “recombinant barcode read abundance (log10)” value turned out to be 2.22.

For the sequence “TATGGTTCTTGGGTTCTAACCTGTTGCCT (site TATGCTTCTAA)”, the “recombinant barcode read abundance (log10)” value was found to be 0.0349.

Consider “TATGGTTCTTGGGTTCTAACCTGTTGCCT (site TATGGTTCTAG)”, for which the “recombinant barcode read abundance (log10)” value was found to be 0.502.

With “TATTAGACTTGGGTTCTAACCTGTTGCCT (site AATTAGACTAG)”, the “recombinant barcode read abundance (log10)” value is 0.158.

Consider “TATTAGACTTGGGTTCTAACCTGTTGCCT (site CATTAGACTAG)”, for which the “recombinant barcode read abundance (log10)” value is 0.13.

For “TATTAGACTTGGGTTCTAACCTGTTGCCT (site GATTAGACTAG)”, the “recombinant barcode read abundance (log10)” value is 0.209.

On to “TATTAGACTTGGGTTCTAACCTGTTGCCT (site TATTAGACTAG)”, for which the “recombinant barcode read abundance (log10)” value worked out at 0.225.

On to “TATTCTACTTGGGTTCTAACCTGTTGCGT (site TATTCTACTAC)”, for which the “recombinant barcode read abundance (log10)” value was found to be 0.0342.

As to “TATTCTACTTGGGTTCTAACCTGTTGCGT (site TATTCTACTCC)”, the “recombinant barcode read abundance (log10)” value came to 0.365.

Consider “TATTCTACTTGGGTTCTAACCTGTTGCGT (site TATTCTACTGC)”, for which the “recombinant barcode read abundance (log10)” value was determined as 0.0341.

For “TATTCTACTTGGGTTCTAACCTGTTGCGT (site TATTCTACTTC)”, the “recombinant barcode read abundance (log10)” value turned out to be 0.0549.

As to “TATTGGACTTGGGTTCTAACCTGTTGCAC (site TATTGGACTAT)”, the “recombinant barcode read abundance (log10)” value is 0.0463.

In the case of “TATTGGACTTGGGTTCTAACCTGTTGCAC (site TATTGGACTCT)”, the “recombinant barcode read abundance (log10)” value worked out at 0.122.

“TATTGGACTTGGGTTCTAACCTGTTGCAC (site TATTGGACTGT)”: the “recombinant barcode read abundance (log10)” value worked out at 0.0567.

For the sequence “TATTGGACTTGGGTTCTAACCTGTTGCAC (site TATTGGACTTT)”, the “recombinant barcode read abundance (log10)” value was determined as 0.0673.

For the sequence “TATTGGACTTGGGTTCTAACCTGTTGCAT (site TATTGGACTAT)”, the “recombinant barcode read abundance (log10)” value is 0.421.

For the sequence “TATTGGACTTGGGTTCTAACCTGTTGCAT (site TATTGGACTCT)”, the “recombinant barcode read abundance (log10)” value was 0.153.

“TATTGGACTTGGGTTCTAACCTGTTGCAT (site TATTGGACTGT)”: the “recombinant barcode read abundance (log10)” value came out at 0.155.

With “TATTGGACTTGGGTTCTAACCTGTTGCAT (site TATTGGACTTT)”, the “recombinant barcode read abundance (log10)” value was found to be 0.101.

As for “TATTGGACTTGGGTTCTAACCTGTTGCTT (site AATTGGACTAA)”, the “recombinant barcode read abundance (log10)” value was 0.0764.

Take “TATTGGACTTGGGTTCTAACCTGTTGCTT (site CATTGGACTAA)”: the “recombinant barcode read abundance (log10)” value is 0.0882.

Regarding “TATTGGACTTGGGTTCTAACCTGTTGCTT (site GATTGGACTAA)”, the “recombinant barcode read abundance (log10)” value was 0.0435.

Take “TATTGGACTTGGGTTCTAACCTGTTGCTT (site TATTGGACTAA)”: the “recombinant barcode read abundance (log10)” value turned out to be 0.141.

As to “TATTTGTCTTGGGTTCTAACCTGTTGCCA (site CACTTGTCTTG)”, the “recombinant barcode read abundance (log10)” value is 0.023.

Take “TATTTGTCTTGGGTTCTAACCTGTTGCCA (site TATTTGTCTTG)”: the “recombinant barcode read abundance (log10)” value stood at 0.156.

As for “TCAAGCCCTTGGGTTCTAACCTGTTGCAG (site CAGTCTACTAC)”, the “recombinant barcode read abundance (log10)” value amounted to 0.011.

In the case of “TCAAGCCCTTGGGTTCTAACCTGTTGCAG (site TCAAGCCCTCT)”, the “recombinant barcode read abundance (log10)” value is 0.927.

With “TCAAGGCCTTGGGTTCTAACCTGTTGCCT (site ACAAGGCCTAG)”, the “recombinant barcode read abundance (log10)” value stood at 0.147.

Take “TCAAGGCCTTGGGTTCTAACCTGTTGCCT (site CCAAGGCCTAG)”: the “recombinant barcode read abundance (log10)” value is 0.084.

Turning to “TCAAGGCCTTGGGTTCTAACCTGTTGCCT (site GCAAGGCCTAG)”, the “recombinant barcode read abundance (log10)” value came out at 0.106.

For the sequence “TCAAGGCCTTGGGTTCTAACCTGTTGCCT (site TCAAGGCCTAG)”, the “recombinant barcode read abundance (log10)” value is 0.32.

Regarding “TCAATCCCTTGGGTTCTAACCTGTTGCCT (site TCAATCCCTAG)”, the “recombinant barcode read abundance (log10)” value came out at 0.326.

With “TCAATCCCTTGGGTTCTAACCTGTTGCCT (site TCCATCCCTAG)”, the “recombinant barcode read abundance (log10)” value was 0.048.

With “TCAATCCCTTGGGTTCTAACCTGTTGCCT (site TCGATCCCTAG)”, the “recombinant barcode read abundance (log10)” value turned out to be 0.173.
